# Assay results published in patent US20110144049A1, “Treating Cardiac Arrhythmias, Heart Failure, Peripheral Artery Disease and Stroke with Cyclopentyl-Triazolo-Pyrimidine or Derivative Thereof” (priority 2009, published 2011).
# Columns and labels:
# randomized patients = experiment: Listed Causes of Death from Efficacy Data Set (by randomized treatment); type: in vivo; conditions: Ticagrelor 90 mg bd N = 9333; Clopidcgrel 75 mg cd N = 9291
# Source text: Causes of death were similar between treatment groups. The most common cause of death was myocardial infarction occurring in about 1% of randomized patients. Sudden death, heart failure, other vascular events and stroke were among the more common causes of death.
# [1] = system: individuals undergoing coronary stent implantation for therapy of Acute Coronary Syndrome (ASC); experiment: large randomized study, primary end point (death from vascular causes, MI or stroke); type: in vivo
smiles,measurement,setting,value
"CCCSc1nc(N[C@@H]2C[C@H]2c2ccc(F)c(F)c2)c2nnn([C@@H]3C[C@H](OCCO)[C@@H](O)[C@H]3O)c2n1 [Ticagrelor, (1S,2S,3R,5S)-3-[7-[(1R,2S)-2-(3,4-Difluorophenyl)cyclopropylamino]-5-(propylthio)-3H-[1,2,3]triazolo[4,5-d]pyrimidin-3-yl]-5-(2-hydroxyethoxy)cyclopentane-1,2-diol]","Cause of death: Aortic dissection, number",randomized patients,1
same,"Cause of death: Aortic dissection, percent",randomized patients,(0.0%)
same,"Cause of death: Arterial embolism, number",randomized patients,0
same,"Cause of death: Arterial embolism, percent",randomized patients,(0.0%)
same,"Cause of death: Cancer, number",randomized patients,14
same,"Cause of death: Cancer, percent",randomized patients,(0.2%)
same,"Cause of death: Cardiac arrhythmia, number",randomized patients,20
same,"Cause of death: Cardiac arrhythmia, percent",randomized patients,(0.2%)
same,"Cause of death: Death from bleeding (not related to trauma), number",randomized patients,13
same,"Cause of death: Death from bleeding (not related to trauma), percent",randomized patients,(0.1%)
same,"Cause of death: Endocarditis, number",randomized patients,0
same,"Cause of death: Endocarditis, percent",randomized patients,(0.0%)
same,"Cause of death: Heart failure, number",randomized patients,51
same,"Cause of death: Heart failure, percent",randomized patients,(0.5%)
same,"Cause of death: Liver failure, number",randomized patients,0
same,"Cause of death: Liver failure, percent",randomized patients,(0.0%)
same,"Cause of death: Multiorgan failure, number",randomized patients,9
same,"Cause of death: Multiorgan failure, percent",randomized patients,(0.1%)
same,"Cause of death: Myocardial infarction, number",randomized patients,89
same,"Cause of death: Myocardial infarction, percent",randomized patients,(1.0%)
same,"Cause of death: Other coronary artery disease, number",randomized patients,4
same,"Cause of death: Other coronary artery disease, percent",randomized patients,(0.0%)
same,"Cause of death: Other non-vascular cause, number",randomized patients,8
same,"Cause of death: Other non-vascular cause, percent",randomized patients,(0.1%)
same,"Cause of death: Other vascular cause, number",randomized patients,44
same,"Cause of death: Other vascular cause, percent",randomized patients,(0.5%)
same,"Cause of death: Pneumonia, number",randomized patients,10
same,"Cause of death: Pneumonia, percent",randomized patients,(0.1%)
same,"Cause of death: Pulmonary embolism, number",randomized patients,3
same,"Cause of death: Pulmonary embolism, percent",randomized patients,(0.0%)
same,"Cause of death: Renal failure, number",randomized patients,2
same,"Cause of death: Renal failure, percent",randomized patients,(0.0%)
same,"Cause of death: Respiratory failure, number",randomized patients,13
same,"Cause of death: Respiratory failure, percent",randomized patients,(0.1%)
same,"Cause of death: Ruptured aortic aneurysm, number",randomized patients,1
same,"Cause of death: Ruptured aortic aneurysm, percent",randomized patients,(0.0%)
same,"Cause of death: Sepsis, number",randomized patients,7
same,"Cause of death: Sepsis, percent",randomized patients,(0.1%)
same,"Cause of death: Stroke, number",randomized patients,20
same,"Cause of death: Stroke, percent",randomized patients,(0.2%)
same,"Cause of death: Sudden death, number",randomized patients,60
same,"Cause of death: Sudden death, percent",randomized patients,(0.6%)
same,"Cause of death: Suicida, number",randomized patients,1
same,"Cause of death: Suicida, percent",randomized patients,(0.0%)
same,"Cause of death: Trauma, number",randomized patients,3
same,"Cause of death: Trauma, percent",randomized patients,(0.0%)
same,"Cause of death: Unknown, number",randomized patients,39
same,"Cause of death: Unknown, percent",randomized patients,(0.4%)
same,"Cause of death: Unstable angina, number",randomized patients,7
same,"Cause of death: Unstable angina, percent",randomized patients,(0.1%)
same,"Cause of death: Valvular disease, number",randomized patients,0
same,"Cause of death: Valvular disease, percent",randomized patients,(0.0%)
same,"Cause of death: Vascular death, sub-classification missing, number",randomized patients,0
same,"Cause of death: Vascular death, sub-classification missing, percent",randomized patients,(0.0%)
COC(=O)[C@H](c1ccccc1Cl)N1CCc2sccc2C1 [clopidogrel],"primary end point: first event of death from vascular causes, myocardial infarction (MI) or stroke, occurred in % of patients",[1],11.7%
same,"Cause of death: Aortic dissection, number",randomized patients,2
same,"Cause of death: Aortic dissection, percent",randomized patients,(0.0%)
same,"Cause of death: Arterial embolism, number",randomized patients,2
same,"Cause of death: Arterial embolism, percent",randomized patients,(0.0%)
same,"Cause of death: Cancer, number",randomized patients,17
same,"Cause of death: Cancer, percent",randomized patients,(0.2%)
same,"Cause of death: Cardiac arrhythmia, number",randomized patients,29
same,"Cause of death: Cardiac arrhythmia, percent",randomized patients,(0.3%)
same,"Cause of death: Death from bleeding (not related to trauma), number",randomized patients,15
same,"Cause of death: Death from bleeding (not related to trauma), percent",randomized patients,(0.2%)
same,"Cause of death: Endocarditis, number",randomized patients,0
same,"Cause of death: Endocarditis, percent",randomized patients,(0.0%)
same,"Cause of death: Heart failure, number",randomized patients,62
same,"Cause of death: Heart failure, percent",randomized patients,(0.7%)
same,"Cause of death: Liver failure, number",randomized patients,1
same,"Cause of death: Liver failure, percent",randomized patients,(0.0%)
same,"Cause of death: Multiorgan failure, number",randomized patients,14
same,"Cause of death: Multiorgan failure, percent",randomized patients,(0.2%)
same,"Cause of death: Myocardial infarction, number",randomized patients,89
same,"Cause of death: Myocardial infarction, percent",randomized patients,(0.9%)
same,"Cause of death: Other coronary artery disease, number",randomized patients,4
same,"Cause of death: Other coronary artery disease, percent",randomized patients,(0.0%)
same,"Cause of death: Other non-vascular cause, number",randomized patients,11
same,"Cause of death: Other non-vascular cause, percent",randomized patients,(0.1%)
same,"Cause of death: Other vascular cause, number",randomized patients,55
same,"Cause of death: Other vascular cause, percent",randomized patients,(0.6%)
same,"Cause of death: Pneumonia, number",randomized patients,8
same,"Cause of death: Pneumonia, percent",randomized patients,(0.1%)
same,"Cause of death: Pulmonary embolism, number",randomized patients,8
same,"Cause of death: Pulmonary embolism, percent",randomized patients,(0.1%)
same,"Cause of death: Renal failure, number",randomized patients,5
same,"Cause of death: Renal failure, percent",randomized patients,(0.1%)
same,"Cause of death: Respiratory failure, number",randomized patients,12
same,"Cause of death: Respiratory failure, percent",randomized patients,(0.1%)
same,"Cause of death: Ruptured aortic aneurysm, number",randomized patients,0
same,"Cause of death: Ruptured aortic aneurysm, percent",randomized patients,(0.0%)
same,"Cause of death: Sepsis, number",randomized patients,23
same,"Cause of death: Sepsis, percent",randomized patients,(0.2%)
same,"Cause of death: Stroke, number",randomized patients,18
same,"Cause of death: Stroke, percent",randomized patients,(0.2%)
same,"Cause of death: Sudden death, number",randomized patients,77
same,"Cause of death: Sudden death, percent",randomized patients,(0.8%)
same,"Cause of death: Suicida, number",randomized patients,1
same,"Cause of death: Suicida, percent",randomized patients,(0.0%)
same,"Cause of death: Trauma, number",randomized patients,1
same,"Cause of death: Trauma, percent",randomized patients,(0.0%)
same,"Cause of death: Unknown, number",randomized patients,58
same,"Cause of death: Unknown, percent",randomized patients,(0.6%)
same,"Cause of death: Unstable angina, number",randomized patients,8
same,"Cause of death: Unstable angina, percent",randomized patients,(0.1%)
same,"Cause of death: Valvular disease, number",randomized patients,1
same,"Cause of death: Valvular disease, percent",randomized patients,(0.0%)
same,"Cause of death: Vascular death, sub-classification missing, number",randomized patients,1
same,"Cause of death: Vascular death, sub-classification missing, percent",randomized patients,(0.0%)
